Values of other authors in US7232821B2, “(2-((2-alkoxy)-phenyl) -cyclopent-1enyl) aromatic carbo and heterocyclic acid and derivatives” (Glaxo Group Limited, priority 2002, dated 2007).

Assays:
[1] = tested on: rat model of chronic constriction injury
[2] = tested on: rodent model of post-operative pain

## Cc1cc(Cl)ccc1S(=O)(=O)NC[C@H]1C2CCC(CC2)[C@@H]1/C=C\CCCC(=O)O [ONO-8711]
[1]
  hyperalgesia and allodynia: reduces hyperalgesia and allodynia
[2]
  mechanical hyperalgesia: inhibits mechanical hyperalgesia
